From US20060233714A1, “Use of a volatile liquid at atmospheric pressure and ambient temperature for the production of pharmaceutical or biological compositions” (priority 2003, published 2006)

Legend:
[1] = Vapor pressure at 25° C. and atmospheric pressure
[2] = Evaporation time of the liquid brought into contact with living human hands; format: physicochemical; details: liquid applied to living human hands/skin; averages; 1 ml or 2 ml
Procedure: For an HFE having a vapor pressure at 25° C. and atmospheric pressure of 28,000 Pa (280 mbar), the evaporation time when 1 ml is brought into contact with living human hands was about 4 seconds; for an HFE having a vapor pressure at 25° C. and atmospheric pressure of 14,000 Pa (140 mbar), the evaporation time was 7 seconds; for an HFE having a vapor pressure at 25° C. and atmospheric pressure of 2100 Pa (21 mbar), the evaporation time was about 15 seconds; and for an HFE having a vapor pressure at 25° C. and atmospheric pressure of 69,800 Pa, the evaporation time was about 1 s.
The evaporation times indicated above are averages for 2 ml applied to the skin. They depend in particular on the temperature of the substrate to which they are applied and can vary between individuals, for application to the skin and mucosae, according to the body temperature and room temperature.

Compound	vapor pressure at 25° C. and atmospheric pressure [1]	evaporation time on the hands [2]
COC(F)(F)C(F)(F)C(F)(F)F [methoxyheptafluoropropane]	69,800 Pa	about 1 s
methoxynonafluorobutane	28,000 Pa	about 4 s
ethoxynonafluorobutane		about 7 s
